Source: PMC11881343, “Safety of ilunocitinib tablets (Zenrelia™) after once daily oral administration in dogs” (BMC Veterinary Research, 2025)

Tests used:
[1] = system: healthy Beagle dogs; details: dog, in vivo
Procedure: At study termination (study day 183), the dogs were humanely euthanized by an intravenous injection of pentobarbital sodium/phenytoin solution under sedation with 6.6–13.2 mg/kg Telazol® (tiletamine/zolazepam) subcutaneous injection. Gross and microscopic examinations were carried out on all animals by a board-certified veterinary pathologist.

[2] = Plasma pharmacokinetics of ilunocitinib (LC-MS/MS, non-compartmental analysis)
Procedure: Samples were collected at pre-dose and at 0.5, 1, 2, 5, 8 and 24 h post-dosing on the day of the first and last dose (study days 1 and 182) and at pre-dose and at 1 and 24 h post-dosing at study day 85. Blood samples were collected in tubes containing K2 EDTA. Blood was processed to plasma within one hour of collection and plasma samples were stored frozen at -20 °C until analyzed.
The bioanalytical data were processed as individual concentration vs. time profiles using a non-compartmental analysis (NCA). Calculations were performed with the software Phoenix WinNonlin (version 8.3; Certara, USA). Tmax and Cmax were derived from observed values. AUCs were calculated using the Linear Up Log Down method. In addition, T1/2 was calculated using the best fit method and dose, time and sex effects were evaluated based on Cmax and AUClast ratios.

[3] = system: dogs; details: field conditions; cited from earlier work
[4] = system: leukocyte subsets (T, Th, Tc, B lymphocytes, monocytes); assay: Peripheral blood immunophenotyping by flow cytometry; assay type: in vivo, dog; details: either sex at any dose level
From the text: Whole blood samples were also collected from the jugular vein for the evaluation of the leukocyte subsets and phenotypes on study days − 16 and − 8, and on study days 29, 57, 85, 113, 141, 169 and 183. The immunophenotype profiling by flow cytometry included total T lymphocytes (CD45 + CD5 + or CD5 + T cells), Helper T lymphocytes (CD45 + CD5 + CD4 + or CD4 + Th cells), Cytotoxic T lymphocytes (CD45 + CD5 + CD8 + or CD8 + Tc cells), B lymphocytes (CD45 + CD5- CD21 + or CD21 + B cells) and monocytes (CD45 + CD14+).
For immunophenotyping/peripheral blood leukocytes, a generalized linear mixed model for repeated measures analysis of variance (mixed model) was conducted. For each endpoint, the model tested for the effects of treatment, time, sex and all two and three-way interactions. The last available pre-treatment value was included in the model as a covariate. The evaluation proceeded as described for RMANCOVA.

[5] = system: healthy Beagle dogs; assay: 6-month target animal safety study: clinical observations, physical, neurological and ophthalmoscopic examinations; details: for Skin discoloration, number of animals affected / Skin lesion w/discharge, number of animals affected / Skin lesion, number of animals affected / Skin scab paw, number of animals affected / Skin thickening (paws), number of animals affected / Swollen paws, number of animals affected: 8 dogs per group
Procedure: This was a randomized, controlled, blinded, 6-month study with a parallel design. Using a block randomization procedure stratified by sex, 20 males and 20 females were randomly allocated on study day − 3 to one of the following five groups (4 males and 4 females per group): Group 1: Untreated control (sham-dosed with 5 mL of tap water); Group 2: Ilunocitinib film-coated tablets at a target dose level of 0.8 mg/kg (1X); Group 3: Ilunocitinib film-coated tablets at a target dose level of 1.6 mg/kg (2X); Group 4: Ilunocitinib film-coated tablets at a target dose level of 2.4 mg/kg (3X) and Group 5: Ilunocitinib film-coated tablets at a target dose level of 4.0 mg/kg (5X). The experimental unit was the individual dog.
The dose levels were selected based on the maximum therapeutic dose (i.e. 0.8 mg/kg, 1X) and the requirement to test multiples of the maximum therapeutic dose, i.e. 2X, 3X and 5X the therapeutic dose. Doses for each individual animal were based on the most recent body weight. Commercial tablets of ilunocitinib, available in 4.8, 6.4, 8.5, and 15 mg strength, were dispensed. These tablets were combined appropriately to meet the individual’s precise dosage requirement, ensuring there was no underdosing. […] Approximately 5 mL of water was given after each administration and the mouth checked to ensure the tablets had been swallowed. Control animals were sham treated with 5 mL of tap water.
Animals were observed twice daily, at least 6 h apart, over the entire course of the study for morbidity, mortality and injury. Clinical examinations of each dog were performed before treatment administration and at approximately 2 and 5 h post treatment. Observations included, but were not limited to, evaluation of skin, fur, eyes, ears, nose, oral cavity, thorax, abdomen, external genitalia, limbs and feet, respiratory and circulatory signs, autonomic effects such as salivation, and nervous system effects including tremors, convulsions, reactivity to handling, and unusual behavior.
Body weights for all animals were recorded during the acclimation phase (study days − 12 and − 1) and then once weekly during the study. Food consumption (dry and wet food) was measured and recorded daily. […] Assessments including overall general condition and behavior, ocular inspection, integument, musculoskeletal, gastrointestinal, body temperature, cardiovascular and respiratory systems including auscultation-based assessment, reproductive, lymphatic, urinary and nervous systems.

[6] = 6-month safety study: body weights and food consumption; assay type: in vivo, dog
Procedure: Endpoints measured multiple times post-treatment that included a pre-treatment measurement (Serum chemistry, C-reactive protein, coagulation, hematology, urinalysis, body weight, body weight changes and food consumption) were analyzed using repeated measures analysis of covariance (RMANCOVA) with ‘treatment’, ‘time’, and ‘sex’; the two-way interactions ‘treatment by time’, ‘treatment by sex’, and ‘sex by time’; the three-way interaction ‘treatment by time by sex’ and a covariate all as fixed effects. The last available pre-treatment value was used as the covariate.

[7] = 1X (0.8 mg/kg oral once daily, 6 months)
[8] = 2X (1.6 mg/kg oral once daily, 6 months)
[9] = 3X (2.4 mg/kg oral once daily, 6 months)
[10] = 5X (4.0 mg/kg oral once daily, 6 months)
[11] = 1X group (0.8 mg/kg/day, 6 months)
[12] = 2X group (1.6 mg/kg/day, 6 months)
[13] = 3X group (2.4 mg/kg/day, 6 months)
[14] = 5X group (4.0 mg/kg/day, 6 months)

With `N#CCC1(n2cc(-c3ncnc4[nH]ccc34)cn2)CN(S(=O)(=O)C2CC2)C1` [ilunocitinib] the “Microscopic findings across all groups” value [1] was “minimal and largely consistent with background pathology”, the “combined adrenal gland weight vs controls” value [1] was “increased combined adrenal gland weight” and the “cutaneous lesions (microscopic), animals affected” value [1] was 5 out of 8. For the same molecule, the “enlarged thyroid/parathyroid glands (incidental macroscopic finding)” value [1] was “single case of enlarged thyroid/parathyroid glands”, the “focal lesions on the lungs (incidental macroscopic finding)” value [1] was “two focal lesions on the lungs” and the “AUC ratio, study day 182 vs day 1” value ([2]; group 2 (1X: 0.8 mg/kg)) was 1.2. The “AUC ratio, study day 182 vs day 1” value ([2]; group 3 (2X: 1.6 mg/kg)) was 1.4, the “AUC ratio, study day 182 vs day 1” value ([2]; group 4 (3X: 2.4 mg/kg)) was 1.6 and the “AUC ratio, study day 182 vs day 1” value ([2]; group 5 (5X: 4.0 mg/kg)) was 1.2. The “Weight gain in dogs under field conditions” value [3] was “in very few cases”, the “effects on leukocyte analysis (immunophenotyping) parameters” value [4] was “no test article-related effects” and the “serious adverse effects during the course of the study” value ([5]; 0.8 to 4.0 mg/kg once daily for 6 months) was “no serious adverse effects”. For the same molecule, the “Skin discoloration, number of animals affected” value (“Skin discoloration, number” for short) [5, 7] was 1, the “Skin lesion w/discharge, number of animals affected” value (from here on “Skin lesion w/discharge, number”) [5, 7] was 1 and the “Skin lesion, number of animals affected” value [5, 7] was 4. For the same molecule, the “Skin scab paw, number of animals affected” value (shortened to “Skin scab paw, number”) [5, 7] was 0, the “Skin thickening (paws), number of animals affected” value (from here on “Skin thickening (paws), number”) [5, 7] was 0 and the “Swollen paws, number of animals affected” value [5, 7] was 1. The “interdigital furunculosis, or cysts, with or without discharge on one or more paws” value ([5]; 1X to 5X) was “dose-dependent presence”, the “Skin discoloration, number” value [5, 8] was 1 and the “Skin lesion w/discharge, number” value [5, 8] was 3. For the same molecule, the “Skin lesion, number of animals affected” value [5, 8] was 5, the “Skin scab paw, number” value [5, 8] was 0 and the “Skin thickening (paws), number” value [5, 8] was 1. The “Swollen paws, number of animals affected” value [5, 8] was 5, the “Skin discoloration, number” value [5, 9] was 2 and the “Skin lesion w/discharge, number” value [5, 9] was 3. The “Skin lesion, number of animals affected” value [5, 9] was 6, the “Skin scab paw, number” value [5, 9] was 1 and the “Skin thickening (paws), number” value [5, 9] was 1. The “Swollen paws, number of animals affected” value [5, 9] was 6, the “Skin discoloration, number” value [5, 10] was 0 and the “Skin lesion w/discharge, number” value [5, 10] was 4. The “Skin lesion, number of animals affected” value [5, 10] was 8, the “Skin scab paw, number” value [5, 10] was 1 and the “Skin thickening (paws), number” value [5, 10] was 0. For the same molecule, the “Swollen paws, number of animals affected” value [5, 10] was 3, the “ophthalmological or neurological findings associated with treatment” value ([5]; all dose levels) was “No ophthalmological or neurological findings” and the “serious adverse effects or mortality” value ([5]; including at 5X overdose for 6 months) was “no serious adverse effects or mortality”. For the same molecule, the tolerability ([5]; therapeutic dose (0.8 mg/kg)) was “well-tolerated”, the Body weight gain [6, 11] was 0.06 ± 0.02 kg and the “mean body weight (± standard error) throughout the study” value [6, 11] was 10.30 ± 0.20 kg. For the same molecule, the “body weight, treatment effect vs control” value ([6]; 1X, 3X and 5X groups, main effect of treatment p = 0.0026) was “statistically significant increases”, the Body weight gain [6, 12] was 0.03 ± 0.02 kg and the “mean body weight (± standard error) throughout the study” value [6, 12] was 9.76 ± 0.20 kg. For the same molecule, the “body weight change, treatment effect vs control” value ([6]; 3X and 5X, main effect of treatment p = 0.0952) was “statistically significant increases”, the Body weight gain [6, 13] was 0.06 ± 0.02 kg and the “mean body weight (± standard error) throughout the study” value [6, 13] was 10.31 ± 0.20 kg. For the same molecule, the Body weight gain [6, 14] was 0.06 ± 0.02 kg, the “mean body weight (± standard error) throughout the study” value [6, 14] was 10.46 ± 0.20 kg and the “weekly averaged daily food consumption, treatment effect” value ([6]; all dose groups) was “statistically significant (p = 0.0872) time by treatment interaction”.
